Reference: US10888505B2, “Dosage of foam for delivering consumer desired dosage volume, surfactant amount, and scalp health agent amount in an optimal formulation space” (The Procter & Gamble Company, priority 2016, dated 2021)
Read-outs that look alike come from different tables or passages of the source.

Tested on: Malassezia furfur
Conditions: inhibition of growth of the Malassezia fungus
Protocol: Malassezia furfur is grown in a flask containing mDixon medium (see E. Gueho, et. al. Antoninie Leeuwenhock (1996), no. 69, 337-55, which description is incorporated by reference herein). Dilutions of solubilized anti-microbial active or diluted products are then added to test tubes containing molten mDixon agar. M. furfur inoculum is added to each tube of molten agar, the tube vortexed, and the contents poured into separate sterile petri dishes. After the plates are incubated, they are observed for visible M. furfur growth. The lowest tested dilution of anti-microbial active or finished product that comprises that yields no growth is defined as the Minimal Inhibitory Concentration (MIC).

Question: [O-]n1ccccc1=S.[O-]n1ccccc1=S.[Zn+2] [ZPT, zinc salt of 1-hydroxy-2-pyridinethione] was tested. Which “Minimum Inhibitory Concentration (MIC)” value (parts active per million parts product and dilution media) did it give?
Answer: Its value is 5 ppm.

Question: What about the “Minimum Inhibitory Concentration (MIC)” value (same MIC expressed as g active per 100 g (product + dilution solution)) of the same molecule?
Answer: The value was 0.0005 g/100 g.
